# Source: patent publication US20260258064A1 (SIRONAX LTD., priority 2023, published 2026)
# Biological target: T1, SARM1 (50-724) (Homo sapiens, UniProt Q6SZW1)
# T1 construct: Purified SARM1 (50-724) with a final concentration of 2 nM was pre-incubated with a test compound
# T1 sequence (Q6SZW1 50-724): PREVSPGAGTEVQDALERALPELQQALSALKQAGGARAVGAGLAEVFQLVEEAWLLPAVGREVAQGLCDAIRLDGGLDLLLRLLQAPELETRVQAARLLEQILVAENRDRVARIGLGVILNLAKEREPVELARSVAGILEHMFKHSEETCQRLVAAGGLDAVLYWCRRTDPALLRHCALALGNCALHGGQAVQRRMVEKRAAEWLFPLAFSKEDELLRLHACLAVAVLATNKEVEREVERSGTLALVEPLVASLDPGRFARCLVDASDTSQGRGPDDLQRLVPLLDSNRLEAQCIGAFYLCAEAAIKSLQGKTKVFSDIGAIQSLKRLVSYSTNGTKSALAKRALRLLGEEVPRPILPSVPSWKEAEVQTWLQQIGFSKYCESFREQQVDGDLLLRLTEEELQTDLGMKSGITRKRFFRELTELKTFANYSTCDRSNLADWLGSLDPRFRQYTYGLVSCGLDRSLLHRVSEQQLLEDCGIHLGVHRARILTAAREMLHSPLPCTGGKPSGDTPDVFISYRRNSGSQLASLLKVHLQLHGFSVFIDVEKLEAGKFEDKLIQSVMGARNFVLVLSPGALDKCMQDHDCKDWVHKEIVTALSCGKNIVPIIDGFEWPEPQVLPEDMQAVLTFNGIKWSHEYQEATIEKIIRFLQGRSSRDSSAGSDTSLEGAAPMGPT
# Assay: SARM1 (50-724) enzymatic assay (LC-MS/MS)
# Assay type: biochemical
# Settings: Purified SARM1 (50-724) 2 nM, NMN as activator, NAD+ as substrate, 1 h at room temperature, read-out: IC50 (SARM1 inhibitory activity)
# Summary of the method: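 Human SARM1 (50-724), 2 nM, pre-incubated 15 min at room temperature with compound in Dulbecco's PBS. Reaction started with 200 µM NMN (activator) plus […] NAD^+ substrate, run 1 h at room temperature, quenched with 70% acetonitrile. Turnover quantified by LC-MS/MS; IC50 reported.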
row,IC50 [µM],SMILES
1,≤ 0.1,"[2H]c1cncc(-n2c([2H])nnc2-c2nc3c(F)c(C4([2H])CC4)ccc3[nH]2)c1C(F)(F)F [Compound 372, 5-(cyclopropyl-1-d)-4-fluoro-2-(4-(4-(trifluoromethyl)pyridin-3-yl-5-d)-4H-1,2,4-triazol-3-yl-5-d)-1H-benzo[d]imidazole]"
2,> 1,"Cc1ccc2[nH]c(-c3nncn3C3CCCC3)c(CO)c2c1 [Compound 11, [2-(4-cyclopentyl-1,2,4-triazol-3-yl)-5-methyl-1H-indol-3-yl]methanol]"
3,> 1,"Cc1ncsc1-n1cnnc1-c1nc2cc(C(F)(F)F)ccc2[nH]1 [Compound 272, 4-methyl-5-(3-(5-(trifluoromethyl)-1H-benzo[d]imidazol-2-yl)-4H-1,2,4-triazol-4-yl)thiazole]"
4,0.5 to 1,"C[S+]([O-])c1c(Br)ccc2[nH]c(-c3nncn3-c3cccc(Cl)c3Cl)nc12 (centres unmarked) [Example 94, 5-bromo-2-(4-(2,3-dichlorophenyl)-4H-1,2,4-triazol-3-yl)-4-(methylsulfinyl)-1H-benzo[d]imidazole]"
5,≤ 0.1,"CS(=O)(=O)Cc1nnc(-c2nc3cc(C4CC4)cc(F)c3[nH]2)n1-c1cnccc1C(F)(F)F [Compound 283, 5-cyclopropyl-7-fluoro-2-(5-((methylsulfonyl)methyl)-4-(4-(trifluoromethyl)pyridin-3-yl)-4H-1,2,4-triazol-3-yl)-1H-benzo[d]imidazole]"
6,> 1,Cc1ccc2[nH]c(-c3ncccc3-c3cccc(Cl)c3Cl)nc2c1 [Example 21]
7,≤ 0.1,"NC(=O)Cc1nnc(-c2nc3cc(C(F)(F)F)ccc3[nH]2)n1-c1cccc(Cl)c1Cl [Example 122, 2-[4-(2,3-Dichlorophenyl)-5-[5-(trifluoromethyl)-1H-benzimidazol-2-yl]-1,2,4-triazol-3-yl]acetamide]"
8,≤ 0.1,"FC(F)(F)c1ccc2[nH]c(-c3nncn3-c3cnccc3C(F)(F)F)c(-c3cccnc3)c2c1 [Compound 387, 3-(pyridin-3-yl)-5-(trifluoromethyl)-2-(4-(4-(trifluoromethyl)pyridin-3-yl)-4H-1,2,4-triazol-3-yl)-1H-indole]"
9,> 1,"FC(F)(F)c1cc2nc(-c3nncn3-c3cccc(Cl)c3Cl)[nH]c2cn1 [Compound 142, 2-(4-(2,3-dichlorophenyl)-4H-1,2,4-triazol-3-yl)-6-(trifluoromethyl)-3H-imidazo[4,5-c]pyridine]"
10,≤ 0.1,"CCc1ccncc1-n1cnnc1-c1nc2cc(C(F)(F)F)ccc2[nH]1 [Compound 231, 2-(4-(4-ethylpyridin-3-yl)-4H-1,2,4-triazol-3-yl)-5-(trifluoromethyl)-1H-benzo[d]imidazole]"
11,≤ 0.1,"FC(F)(F)c1ccc2[nH]c(-c3nncnc3-c3cccc(Cl)c3Cl)nc2c1 [Compound 307, 2-(5-(2,3-dichlorophenyl)-1,2,4-triazin-6-yl)-5-(trifluoromethyl)-1H-benzo[d]imidazole]"
12,≤ 0.1,Fc1ccc(-n2cnnc2-c2nc3cc(C(F)(F)F)ccc3[nH]2)c(Cl)c1F [Example 120]
13,≤ 0.1,"Cn1ncc(C(F)(F)F)c1-n1cnnc1-c1nc2cc(C(F)(F)F)ccc2[nH]1 [Compound 257, 2-(4-(1-methyl-4-(trifluoromethyl)-1H-pyrazol-5-yl)-4H-1,2,4-triazol-3-yl)-5-(trifluoromethyl)-1H-benzo[d]imidazole]"
14,0.1 to 0.5,Cn1cc(-c2ccccc2Cl)c(-c2nc3cc(C(F)(F)F)ccc3[nH]2)cc1=O [Example 75]
15,≤ 0.1,"Cc1nnc(-c2nc3cc(C(F)(F)F)ccc3[nH]2)n1-c1cccc(Cl)c1Cl [Example 87, 2-(4-(2,3-dichlorophenyl)-5-methyl-4H-1,2,4-triazol-3-yl)-5-(trifluoromethyl)-1H-benzo[d]imidazole]"
16,> 1,"O=S1(=O)CC(c2nc3cc(C(F)(F)F)ccc3[nH]2)=C(c2ccccc2Cl)C1 [Compound 337, 3-(2-chlorophenyl)-4-(5-(trifluoromethyl)-1H-benzo[d]imidazol-2-yl)-2,5-dihydrothiophene 1,1-dioxide]"

row,IC50 [µM],SMILES
1,≤ 0.1,"Cn1cc(OC(F)(F)F)c(-n2cnnc2-c2nc3cc(C4CC4)cc(F)c3[nH]2)cc1=O [Compound 353, 4-(3-(5-cyclopropyl-7-fluoro-1H-benzo[d]imidazol-2-yl)-4H-1,2,4-triazol-4-yl)-1-methyl-5-(trifluoromethoxy)pyridin-2(1H)-one]"
2,≤ 0.1,"Fc1cccc(-n2cnnc2-c2nc3cc(C(F)(F)F)ccc3[nH]2)c1F [Example 84, 2-(4-(2,3-difluorophenyl)-4H-1,2,4-triazol-3-yl)-5-(trifluoromethyl)-1H-benzo[d]imidazole]"
3,≤ 0.1,"CC(c1ccncc1)c1cc(F)c2[nH]c(-c3nnccc3-c3cnccc3C(F)(F)F)nc2c1 (centres unmarked) [Compound 460, 7-fluoro-5-(1-(pyridin-4-yl)ethyl)-2-(4-(4-(trifluoromethyl)pyridin-3-yl)pyridazin-3-yl)-1H-benzo[d]imidazole]"
4,≤ 0.1,"CS(=O)(=O)Cc1nnc(-c2nc3c(F)c(C(F)(F)F)ccc3[nH]2)n1-c1cccc(F)c1Cl (racemic) [Compound 195, 2-(4-(2-chloro-3-fluorophenyl)-5-((methylsulfonyl)methyl)-4H-1,2,4-triazol-3-yl)-4-fluoro-5-(trifluoromethyl)-1H-benzo[d]imidazole]"
5,0.1 to 0.5,"Cn1cc(-c2cnccc2C(F)(F)F)c(-c2nc3cc(C(F)(F)F)c(Cl)cc3[nH]2)cc1=O [Compound 389, 4-(5-chloro-6-(trifluoromethyl)-1H-benzo[d]imidazol-2-yl)-1-methyl-4′-(trifluoromethyl)-[3,3′-bipyridin]-6(1H)-one]"
6,0.1 to 0.5,"FC(F)(F)c1ccc2[nH]c(C3CSCC3c3ccccc3Cl)nc2c1 (centres unmarked) [Compound 340, 2-(4-(2-chlorophenyl)tetrahydrothiophen-3-yl)-5-(trifluoromethyl)-1H-benzo[d]imidazole]"
7,0.1 to 0.5,"Fc1cccc(-n2c(CCc3nccs3)nnc2-c2nc3cc(C(F)(F)F)ccc3[nH]2)c1Cl [Compound 419, 2-(2-(4-(2-chloro-3-fluorophenyl)-5-(5-(trifluoromethyl)-1H-benzo[d]imidazol-2-yl)-4H-1,2,4-triazol-3-yl)ethyl)thiazole]"
8,≤ 0.1,O=C(O)C1(c2ccc3[nH]c(-c4nncn4-c4cccc(Cl)c4Cl)nc3c2)CCC1 [Example 113]
9,≤ 0.1,"FC(F)(F)c1ccc2[nH]c(-c3nncn3-c3cnccc3C(F)(F)F)c(-c3cccnn3)c2c1 [Compound 426, 3-pyridazin-3-yl-5-(trifluoromethyl)-2-[4-[4-(trifluoromethyl)-3-pyridyl]-1,2,4-triazol-3-yl]-1H-indole]"
10,≤ 0.1,"NC(=O)C1CC1c1ccc2[nH]c(-c3nncn3-c3cnccc3C(F)(F)F)nc2c1F (centres unmarked) [Compound 321, 2-(4-fluoro-2-(4-(4-(trifluoromethyl)pyridin-3-yl)-4H-1,2,4-triazol-3-yl)-1H-benzo[d]imidazol-5-yl)cyclopropane-1-carboxamide]"
11,0.1 to 0.5,"NC(=O)c1nc(Cl)c(-n2cnnc2-c2nc3cc(C(F)(F)F)cc(F)c3[nH]2)s1 [Compound 216, 4-chloro-5-(3-(7-fluoro-5-(trifluoromethyl)-1H-benzo[d]imidazol-2-yl)-4H-1,2,4-triazol-4-yl)thiazole-2-carboxamide]"
12,≤ 0.1,"O=C(O)c1cc(-n2cnnc2-c2nc3cc(C(F)(F)F)ccc3[nH]2)c(OC(F)(F)F)cn1 [Compound 266, 5-(trifluoromethoxy)-4-(3-(5-(trifluoromethyl)-1H-benzo[d]imidazol-2-yl)-4H-1,2,4-triazol-4-yl)picolinic acid]"
13,0.1 to 0.5,"FC(F)(F)c1ccc2[nH]c(-c3nncn3-c3cn4nccc4cc3C(F)(F)F)nc2c1 [Compound 311, 5-(trifluoromethyl)-2-(4-(5-(trifluoromethyl)pyrazolo[1,5-a]pyridin-6-yl)-4H-1,2,4-triazol-3-yl)-1H-benzo[d]imidazole]"
14,0.1 to 0.5,"Cn1cc(-c2cccc(Cl)c2Cl)c(-c2nc3cc(Cl)c(Cl)cc3[nH]2)cc1=O [Compound 188, 4-(5,6-dichloro-1H-benzo[d]imidazol-2-yl)-5-(2,3-dichlorophenyl)-1-methylpyridin-2(1H)-one]"
15,≤ 0.1,"Cc1cc(-c2ccc3[nH]c(-c4nncn4-c4cccc(Cl)c4Cl)nc3c2)n(C)n1 [Example 74, 2-(4-(2,3-dichlorophenyl)-4H-1,2,4-triazol-3-yl)-5-(1,3-dimethyl-1H-pyrazol-5-yl)-1H-benzo[d]imidazole]"
16,0.1 to 0.5,"Cc1cc(-c2cnccc2C(F)(F)F)c(-c2nc3cc(C(F)(F)F)ccc3[nH]2)nn1 [Compound 377, 2-(6-Methyl-4-(4-(trifluoromethyl)pyridin-3-yl)pyridazin-3-yl)-5-(trifluoromethyl)-1H-benzo[d]imidazole]"
